The results in this text go back to patent publication US20240374737A1, “ERK5 DEGRADERS AND USES THEREOF” (DANA-FARBER CANCER INSTITUTE, INC., priority 2021, published 2024).

For assay [1], the target named is T1, ERK5 (Homo sapiens, UniProt Q13164).
T1 construct: endogenous in cells; host or cells: Molt4 cells
Put plainly: ERK5 degradation immunoblot in Molt4 cells. The class given is cell-based. The following applies: for ERK5 degradation (immunoblot): 0.1 μM or 1 μM; for ERK5 degradation (immunoblot) / concentration at which ERK5 degradation is seen (as low as / up to): 5 hours. The protocol:
Molt4 cells were maintained in RPMI 1640 supplemented with 10% FBS and 100 U/mL Penicillin-Streptomycin at 37° C. in the presence of 5% CO2. […] The cells were then lysed with RIPA buffer containing phosphatase/protease inhibitor, and cell extracts were precleared by centrifugation at 21000×g for 5 minutes at 4° C. The Pierce BCA protein assay kit was used to assess protein lysate concentration and normalized using SDS sample buffer. Lysates were resolved on 4-12% Tris-Base gels and transferred to an Immuno-Blot PVDF membrane. The membrane was blocked for 1 hour, then incubated with primary antibodies against ERK5 (Cell Signaling) and j-Actin (Cell Signaling). The next day, membranes were washed with TBS-T, then incubated at room temperature for 1 hour with IRDye@800-labeled goat anti-rabbit IgG and IRDye@800-labeled goat anti-mouse IgG (LI-COR) secondary antibodies. The membranes were detected on Odyssey® CLx system.

Assay [2] deals with T1, ERK5. The assay can be described thus: Multiplexed tandem mass tag quantitative mass spectrometry proteomics in Molt4 cells. The format is cell-based. The conditions noted are these: 100 nM, 5 hours, vs DMSO vehicle. The protocol: FIG. 3 is a scatterplot that depicts the change in relative protein abundance of compound 2 (100 nM, 5 h)-treated MOLT4 cells compared with DMSO vehicle control-treated cells. Protein abundance measurements were made using tandem mass tag quantitative mass spectrometry. The log 2fold change (log 2FC) is shown on the y axis and negative log 10p value (−log 10p value) on the x axis.

T1 sequence (Q13164 whole entry): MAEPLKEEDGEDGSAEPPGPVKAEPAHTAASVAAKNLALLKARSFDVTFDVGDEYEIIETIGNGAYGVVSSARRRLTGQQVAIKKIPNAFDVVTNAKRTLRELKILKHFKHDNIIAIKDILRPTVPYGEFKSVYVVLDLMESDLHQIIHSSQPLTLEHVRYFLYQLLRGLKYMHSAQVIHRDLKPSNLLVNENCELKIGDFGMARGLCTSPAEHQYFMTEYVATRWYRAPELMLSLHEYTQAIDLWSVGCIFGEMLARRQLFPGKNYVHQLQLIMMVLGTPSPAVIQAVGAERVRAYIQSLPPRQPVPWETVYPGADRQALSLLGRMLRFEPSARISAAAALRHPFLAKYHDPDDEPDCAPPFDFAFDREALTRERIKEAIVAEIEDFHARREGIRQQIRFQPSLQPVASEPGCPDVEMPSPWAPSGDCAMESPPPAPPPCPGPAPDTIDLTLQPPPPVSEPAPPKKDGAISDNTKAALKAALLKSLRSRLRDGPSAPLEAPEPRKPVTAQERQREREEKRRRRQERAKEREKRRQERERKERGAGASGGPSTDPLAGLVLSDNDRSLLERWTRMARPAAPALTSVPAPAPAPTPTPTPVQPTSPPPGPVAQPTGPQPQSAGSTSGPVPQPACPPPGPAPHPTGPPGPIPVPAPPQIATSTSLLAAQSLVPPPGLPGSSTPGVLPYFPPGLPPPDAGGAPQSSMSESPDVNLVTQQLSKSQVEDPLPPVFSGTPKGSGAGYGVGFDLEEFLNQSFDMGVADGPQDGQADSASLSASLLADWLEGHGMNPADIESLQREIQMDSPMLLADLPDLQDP

Consider `Cc1ncsc1-c1ccc([C@H](C)NC(=O)[C@@H]2C[C@@H](O)CN2C(=O)[C@@H](NC(=O)CCCCCN2CCN(c3ccc4c(C5CCN(C(=O)c6ccc(OC(F)(F)F)cc6N)CC5)ncnc4c3)CC2)C(C)(C)C)cc1` [compound 2, (2S,4R)-1-((S)-2-(6-(4-(4-(1-(2-amino-4-(trifluoromethoxy)benzoyl)piperidin-4-yl)quinazolin-7-yl)piperazin-1-yl)hexanamido)-3,3-dimethylbutanoyl)-4-hydroxy-N—((S)-1-(4-(4-methylthiazol-5-yl)phenyl)ethyl)pyrrolidine-2-carboxamide], for which, on ERK5 [1] (0.1 μM and 1 μM, time course 1 h, 2 h, 3 h, 4 h), the “time of treatment within which ERK5 degradation is induced” value was no more than 2 h. Further, at ERK5 [1], the “ERK5 degradation (immunoblot)” value is given as “potently degraded ERK5” and the “concentration at which ERK5 degradation is seen (as low as / up to)” value was no more than 0.05 µM. Also, the “VHL dependence of ERK5 degradation” value at ERK5 [1] (5 h, compared with negative control) is recorded as “degraded ERK5 in a VHL-dependent manner”. Also, the “concentration at which ERK5 degradation is induced (as low as)” value at ERK5 [1] (5 hours of treatment) is on record as no more than 50 nM. Besides, at ERK5 [2], the “change in relative protein abundance (proteome-wide selectivity)” value is reported as “significant downregulation of only ERK5 protein levels”.

In the case of `Cc1ncsc1-c1ccc([C@H](C)NC(=O)[C@H]2C[C@H](O)CN2C(=O)[C@@H](NC(=O)CCCCCN2CCN(c3ccc4c(C5CCN(C(=O)c6ccc(OC(F)(F)F)cc6N)CC5)ncnc4c3)CC2)C(C)(C)C)cc1` [compound 13, (2R,4S)-1-((S)-2-(6-(4-(4-(1-(2-amino-4-(trifluoromethoxy)benzoyl)piperidin-4-yl)quinazolin-7-yl)piperazin-1-yl)hexanamido)-3,3-dimethylbutanoyl)-4-hydroxy-N—((S)-1-(4-(4-methylthiazol-5-yl)phenyl)ethyl)pyrrolidine-2-carboxamide, reference compound], at ERK5 [1], the “ERK5 degradation (immunoblot)” value was “did not recruit the VHL E3 ligase or induce ERK5 degradation” and the “concentration at which ERK5 degradation is seen (as low as / up to)” value is greater than 5 µM.
